The source of these data is patent US6696460B2, “Tetrahydropyridoethers” (Atlanta Pharma AG, priority 1998, dated 2004).

Each structure is given as a SMILES string.

In the first data set the test system is pentagastrin-stimulated acid secretion of the perused rat stomach. Kind of data set: Secretion-inhibiting action on the perfused rat stomach (pentagastrin-stimulated, in vivo). The settings on record: anesthetized CD rat, dose 3 μmol/kg i.v. From the text:
Testing of the Secretion-Inhibiting Action on the Perfused Rat Stomach
The abdomen of anesthetized rats (CD rat, female, 200-250 g; […] i.m. urethane) was opened after tracheotomy by means of a median upper abdominal incision and a PYC catheter was fixed transorally in the esophagus and another via the pylorus such that the ends of the tube just projected into the gastric lumen. The catheter leading from the pylorus led outwards into the right abdominal wall through a side opening.
After thorough rinsing (about 50-100 ml), warm physiological NaCl solution at 37° C. was continuously passed through the stomach (0.5 ml/min. pH 6.8-6.9; Braun-Unita I). The pH (pH meter 632, glass electrode EA 147; φ=5 mm, Metrohm) and, by titration with a freshly prepared 0.01 N NaOH solution to pH 7 (Dosimat 665 Metrohm), the secreted HCl were determined in the effluent in each case collected at an interval of 15 minutes.
The gastric secretion was stimulated by continuous infusion of 1 μg/kg (=1.65 ml/h) of I.v. pentagastrin (left femoral vein) about 30 min after the end of the operation (i.e after determination of 2 preliminary fractions). The substances to be tested were administered intravenously in 1 ml/kg liquid volumes 60 min after the start of the pentagastrin continuous infusion.
The body temperature of the animals was kept at a constant 37.8-38° C. by infrared irradiation and heat pads (automatic, stepless control by means of a rectal temperature sensor).
Turning to `CO[C@@H]1c2ccn3c(C)c(C)nc3c2N[C@H](c2ccccc2)[C@H]1O` [Example 1], the “Inhibition of acid secretion” value was found to be 100%. In the case of `CO[C@H]1c2ccn3c(C)c(C)nc3c2N[C@H](c2ccccc2)[C@H]1O` [Example 2, (7S, 8R, 9R)-2,3-Dimethyl-8-hydroxy-7-methoxy-9-phenyl-7,8,9,10-tetrahydro-imidazo[1,2-h]-[1,7]naphythyridine], the “Inhibition of acid secretion” value turned out to be 100%. Same read-out and setting: the result for `CCO[C@@H]1c2ccn3c(C)c(C)nc3c2N[C@H](c2ccccc2)[C@H]1O` [Example 4, (7R, 8R, 9R)-2,3Dimethyl-7-ethoxy-8-hydroxy-phenyl-7,8,9,10-tetrahydro-imidazo[1,2-h]-[1,7]naphythryridine] reads 100%; that for `COCCO[C@H]1c2ccn3c(C)c(C)nc3c2N[C@H](c2ccccc2)[C@H]1O` [Example 6, (7S, 8R, 9R)-2,3-Dimethyl-8-hydroxy-7-(2-methoxyethoxy)-9-phenyl-7,8,9,10-tetrahydro-imiazo[1,2-h][1,7]naphthyridine], 100%. As to `CO[C@@H]1[C@@H](c2ccccc2)Nc2c(ccn3c(C)c(C)nc23)[C@H]1OC` [Example 8], the “Inhibition of acid secretion” value amounted to 100%.

The same data set, now with this note: iv, anesthetized CD rat, dose 3 μmol/kg i.v.
Usually inhibition stands for the change of the read-out against control, counted positive when it falls. A higher inhibition goes with strong suppression. In the case of `CCO[C@@H]1c2ccn3c(C)c(C)nc3c2N[C@H](c2ccccc2)[C@H]1O` [Example 3, (7R, 8R, 9R)-2,3-Dimethyl-7-ethoxy-8-hydroxy-9-phenyl-7,8,9,10-tetrahydro-imidazo[1,2-h]-[1,7]naphthyridine], the inhibition at 3 µmol/kg is 100%. As for `COCCO[C@@H]1c2ccn3c(C)c(C)nc3c2N[C@H](c2ccccc2)[C@H]1O` [Example 5, (7R, 8R, 9R)-2,3-Dimethyl-8-hydroxy-7-(2-methoxyethoxy)-9-phenyl-7,8,9,10-tetrahydro-imidazo[1,2-h][1,7]naphthyridine], the inhibition at 3 µmol/kg was 100%. `Cc1nc2c3c(ccn2c1C)[C@H](OC(C)C)[C@H](O)[C@@H](c1ccccc1)N3` [Example 7, (7S, 8R, 9R)-2,3-Dimethyl-8-hydroxy-9-phenyl-7-(2-propoxy)-7,8,9,10-tetrahydro-imidazo[1,2-h][1,7]naphthyridine] registered an inhibition at 3 µmol/kg of 100%.

System in a further data set: not given
Experiment: not given
Conditions: not given
What is called melting point is the temperature, or range, at which the solid turns liquid. In the case of `CO[C@H]1c2ccn3c(C)c(C)nc3c2N[C@@H](c2ccccc2)[C@@H]1O` [Example 1B, (7S, 8S, 9S)-2,3-Dimethyl-8-hydroxy-7-methoxy-9-phenyl-7,8,9,10-tetrahydro-imidazo[1,2-h]-[1,7]naphthyridine], the melting point fell in the range of 161 to 162 °C. For `CO[C@@H]1c2ccn3c(C)c(C)nc3c2N[C@@H](c2ccccc2)[C@@H]1O` [Example 2B, (7R, 8S, 9S)-2,3-Dimethyl-8-hydroxy-7-methoxy-9-phenyl-7,8,9,10-tetrahydro-imidazo[1,2-h]-[1,7]naphthyridine], the melting point lay within 171 to 172 °C. Same read-out and setting: the same measure for `CCO[C@@H]1c2ccn3c(C)c(C)nc3c2N[C@H](c2ccccc2)[C@H]1O` [Example 3, (7R, 8R, 9R)-2,3-Dimethyl-7-ethoxy-8-hydroxy-9-phenyl-7,8,9,10-tetrahydro-imidazo[1,2-h]-[1,7]naphthyridine]: 188 to 190 °C; for `Cc1nc2c3c(ccn2c1C)[C@H](OC(C)C)[C@H](O)[C@@H](c1ccccc1)N3` [Example 7, (7S, 8R, 9R)-2,3-Dimethyl-8-hydroxy-9-phenyl-7-(2-propoxy)-7,8,9,10-tetrahydro-imidazo[1,2-h][1,7]naphthyridine]: 168 to 169 °C.
